pIC50: −log10 of the molar value.
What was measured:
[1] = tested on: IDO1 expressed in mouse tumor cells; settings: pre-immunized mice; Uyttenhove et al.; cited from earlier work
[2] = tested on: Leishmania major; settings: Leishmania major infection; cited from earlier work
[3] = tested on: melanoma and glioblastoma; settings: mouse tumor models for melanoma and glioblastoma; cited from earlier work
[4] = tested on: lung carcinoma; settings: syngeneic mouse lung carcinoma model and transgenic mouse model; cited from earlier work
[5] = tested on: influenza virus; settings: influenza virus-infected mice; cited from earlier work
[6] = target: T1, IDO1 (Homo sapiens, UniProt P14902); assay: Cell-based assay for IDO1 in interferon-γ stimulated A-375 melanoma cells; settings: interferon-γ stimulation, 48 hours, read-out: IC50, cell-based IDO1 (NFK levels)
Description: The biological activity of IDO1 inhibitors can be measured by applying above detection methods to cells that are treated with test compound. The expression of IDO1 can be induced in many different cell lines by stimulation with IFNγ (Takikawa, O., et al., J. Biol. Chem. 263: 2041; 1988; Seegers, et al.), or IDO1 can be expressed in cells that lack endogenous IDO1 by transfection of an expression vector containing IDO1 cDNA.
A-375 melanoma cells were purchased from LGC Standards GmbH (Wesel, Germany) and cultured in DMEM tissue culture medium (Life Technologies, Bleiswijk, The Netherlands), supplemented with 10% (v/v) bovine calf serum. Compounds were dissolved in DMSO and diluted in DMEM. Final DMSO concentration in the assay was 0.4% (v/v). Eight thousand cells per well in 35 μl were seeded in a black 384-well tissue plate (cat. No. 781086; Greiner Bio-One GmbH, Frickenhausen, Germany) and allowed to adhere by incubation at 37° C., 95% humidity, and 5% CO2 overnight. Then, 5 μl of compound solution was added to the cells 1 hour prior to stimulation with 5 μl of 500 ng/ml interferon-γ (R&D Systems, Minneapolis, Minn., USA) diluted in DMEM medium. At the same time, 5 μl of L-tryptophan in 20 mM Hepes buffer pH 7.4 was added. Incubation was continued for 48 hours. To determine NFK levels, 12 μl NFK Green™ (NTRC, Oss, The Netherlands) was added to each well, and the plate was sealed and incubated for 4 hours at 37° C. Fluorescence was measured on an EnVision multimode reader (Perkin Elmer, Waltham, Mass., USA). IC50 were calculated using XLfit™ software (ID Business Solutions, Ltd., Surrey, U.K.).

[7] = target: T1, IDO1; assay: Biochemical IDO1 assay (NFK GreenScreen); set-up: Recombinant full-length IDO1 (Seegers, N., et al.) and all other assay components were diluted in IDO1 reaction buffer; made in house; settings: recombinant full-length IDO1 25 nM, L-tryptophan 100 μM, NFK Green detection; read-out: IC50, inhibitory potency on IDO1
Method in brief: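 Recombinant full-length IDO1 in 50 mM NaH2PO4 pH 7.0 with 0.05% Tween-20 and 1% glycerol converted 100 μM L-tryptophan (final) over 60 min at room temperature with compound, 0.3% DMSO.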

[8] = target: TDO (Homo sapiens, UniProt P48775); settings: read-out: KM,Trp of TDO for L-tryptophan; cited from earlier work
[9] = target: T1, IDO1; set-up: Recombinant full-length IDO1 (Seegers, N., et al.) and all other assay components were diluted in IDO1 reaction buffer; made in house; settings: read-out: KM,Trp of IDO1 for L-tryptophan; cited from earlier work
[10] = target: tryptophan 2,3-dioxygenase (TDO) (Homo sapiens, UniProt P48775); settings: Seegers et al. 2014; cited from earlier work
[11] = tested on: melanoma; settings: Yue et al. 2009; cited from earlier work

T1 sequence (P14902 whole entry, species assumed): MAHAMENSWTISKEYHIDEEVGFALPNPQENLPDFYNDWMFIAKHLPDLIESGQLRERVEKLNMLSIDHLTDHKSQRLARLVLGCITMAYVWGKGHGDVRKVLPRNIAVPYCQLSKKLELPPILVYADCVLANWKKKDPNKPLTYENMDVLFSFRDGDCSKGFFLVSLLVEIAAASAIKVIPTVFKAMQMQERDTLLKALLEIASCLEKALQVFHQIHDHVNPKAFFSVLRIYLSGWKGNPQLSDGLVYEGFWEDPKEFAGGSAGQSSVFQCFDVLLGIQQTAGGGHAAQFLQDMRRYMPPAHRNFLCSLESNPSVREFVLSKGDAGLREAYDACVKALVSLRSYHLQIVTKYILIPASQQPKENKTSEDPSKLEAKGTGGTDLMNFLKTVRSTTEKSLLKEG
tryptophan 2,3-dioxygenase (TDO), sequence (P48775 whole entry, species assumed): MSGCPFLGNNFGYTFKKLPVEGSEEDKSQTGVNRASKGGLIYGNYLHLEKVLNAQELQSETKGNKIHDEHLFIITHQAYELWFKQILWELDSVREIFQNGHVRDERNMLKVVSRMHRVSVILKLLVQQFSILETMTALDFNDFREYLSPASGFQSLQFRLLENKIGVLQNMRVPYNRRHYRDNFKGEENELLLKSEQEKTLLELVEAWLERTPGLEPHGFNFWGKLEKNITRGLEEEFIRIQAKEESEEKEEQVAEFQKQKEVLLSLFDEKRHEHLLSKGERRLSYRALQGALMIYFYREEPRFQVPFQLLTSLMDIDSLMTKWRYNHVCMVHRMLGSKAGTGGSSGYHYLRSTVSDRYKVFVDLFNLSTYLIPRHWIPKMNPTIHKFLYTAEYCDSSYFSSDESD
TDO, sequence (P48775 whole entry, species assumed): as above

SMILES	pIC50 [6]	pIC50 [7]	also measured
Cn1cc(C[C@H](N)C(=O)O)c2ccccc21 [Example 1-MT, 1-methyl-L-tryptophan]	–	–	reversal of IDO1-mediated prevention of tumor cell rejection [1]: this effect could be reverted; parasite burden [2]: reduced the parasite burden; efficacy of PD-1 and CTLA4 antibodies in combination [3]: increased the efficacy of antibodies targeting the immune checkpoints PD-1 and CTLA4; efficacy of a cancer vaccine in combination [4]: increased the efficacy of a cancer vaccine; T cell response against influenza virus [5]: enhanced T cell response against the virus
O=C1CN(C(=O)c2c(F)cc(-c3ccncc3)cc2F)C(c2cccc(Br)c2)N1O (stereo not drawn) [Example 118, 2-(3-Bromophenyl)-1-[2,6-difluoro-4-(4-pyridyl)benzoyl]-3-hydroxy-imidazolidin-4-one]	> 5.30	≥ 6.00	–
Cn1cc(-c2cc(F)c(C(=O)N3CC(=O)N(O)C3c3cccc(Br)c3)c(F)c2)cn1 (stereo not drawn) [Example 119, 2-(3-Bromophenyl)-1-[2,6-difluoro-4-(1-methylpyrazol-4-yl)benzoyl]-3-hydroxy-imidazolidin-4-one]	> 5.30	≥ 6.00	–
O=C1CN(C(=O)c2c(F)cc(-c3cccs3)cc2F)C(c2cccc(Br)c2)N1O (stereo not drawn) [Example 120, 2-(3-Bromophenyl)-1-[2,6-difluoro-4-(2-thienyl)benzoyl]-3-hydroxy-imidazolidin-4-one]	> 5.30	≥ 6.00	–
O=C1CN(Cc2ccccc2F)C(c2cccc(I)c2)N1O (stereo not drawn) [Example 124, 1-[(2-Fluorophenyl)methyl]-3-hydroxy-2-(3-iodophenyl)imidazolidin-4-one]	> 5.30	≥ 6.00	–
O=C1CN(Cc2ccccc2F)C(c2cccc(Br)c2)N1O (stereo not drawn) [Example 125, 2-(3-Bromophenyl)-1-[(2-fluorophenyl)methyl]-3-hydroxy-imidazolidin-4-one]	> 5.30	≥ 6.00	–
O=C1CN(Cc2c(F)cccc2F)C(c2cccc(Br)c2)N1O (stereo not drawn) [Example 127, 2-(3-Bromophenyl)-1-[(2,6-difluorophenyl)methyl]-3-hydroxy-imidazolidin-4-one]	> 5.30	≥ 6.00	–
C=Cc1cccc(C2N(O)C(=O)CN2C(=O)c2c(F)cccc2F)c1 (stereo not drawn) [Example 129, 1-(2,6-Difluorobenzoyl)-3-hydroxy-2-(3-vinylphenyl)imidazolidin-4-one]	> 5.30	≥ 6.00	–
COCCNC(=O)c1cc(F)c(C(=O)N2CC(=O)N(O)C2c2cccc(Br)c2)c(F)c1 (stereo not drawn) [Example 137, 4-[2-(3-Bromophenyl)-3-hydroxy-4-oxo-imidazolidine-1-carbonyl]-3,5-difluoro-N-(2-methoxyethyl)benzamide]	> 5.30	≥ 6.00	–
COCCNC(=O)c1c(Br)cc(F)c(C(=O)N2CC(=O)N(O)C2c2cccc(Br)c2)c1F (stereo not drawn) [Example 138, 6-Bromo-3-[2-(3-bromophenyl)-3-hydroxy-4-oxo-imidazolidine-1-carbonyl]-2,4-difluoro-N-(2-methoxyethyl)benzamide]	> 5.30	≥ 6.00	–
N[C@@H](Cc1c[nH]c2ccccc12)C(=O)O [L-tryptophan]	–	–	Km [8]: 190 µM; Km [9]: 6 µM
Nc1nonc1C(=NO)Nc1ccc(F)c(Cl)c1 [compound 51, 4-amino-N-(3-chloro-4-fluorophenyl)-N′-hydroxy-1,2,5-oxadiazole-3-carboximidamide]	–	–	inhibition of TDO activity in biochemical assays [10]: inhibit the activity of tryptophan 2,3-dioxygenase (TDO); tumor growth in mouse model for melanoma [11]: reduction of tumor growth

Reference: US10494360B2, “Inhibitors of indoleamine 2,3-dioxygenase” (NETHERLANDS TRANSLATIONAL RESEARCH CENTER B.V., priority 2016, dated 2019)
